Target: T1, PLK1 (Homo sapiens, UniProt P53350)
T1 construct: Full-length, active GST-PLK1 is purified from Sf9 insect cells; made in house; host or cells: Sf9 insect cells
Experiment: Biochemical Characterization Assay: HTRF kinase assay, GST-PLK1 phosphorylation of GST-p53
Settings: GST-PLK1, GST-p53 substrate
Procedure, shortened: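 HTRF read-out of p53 phosphorylation: after EDTA stop, anti-phospho-p53 antibody bound 30 min at 37 °C in HEPES pH 7 buffer, with Eu-anti-rabbit/APC-anti-GST detection. Kinase step used full-length Sf9-expressed GST-PLK1 (3 ug/mL) and E. coli GST-p53 substrate, 35 min at 37 °C.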

T1 sequence (P53350 whole entry): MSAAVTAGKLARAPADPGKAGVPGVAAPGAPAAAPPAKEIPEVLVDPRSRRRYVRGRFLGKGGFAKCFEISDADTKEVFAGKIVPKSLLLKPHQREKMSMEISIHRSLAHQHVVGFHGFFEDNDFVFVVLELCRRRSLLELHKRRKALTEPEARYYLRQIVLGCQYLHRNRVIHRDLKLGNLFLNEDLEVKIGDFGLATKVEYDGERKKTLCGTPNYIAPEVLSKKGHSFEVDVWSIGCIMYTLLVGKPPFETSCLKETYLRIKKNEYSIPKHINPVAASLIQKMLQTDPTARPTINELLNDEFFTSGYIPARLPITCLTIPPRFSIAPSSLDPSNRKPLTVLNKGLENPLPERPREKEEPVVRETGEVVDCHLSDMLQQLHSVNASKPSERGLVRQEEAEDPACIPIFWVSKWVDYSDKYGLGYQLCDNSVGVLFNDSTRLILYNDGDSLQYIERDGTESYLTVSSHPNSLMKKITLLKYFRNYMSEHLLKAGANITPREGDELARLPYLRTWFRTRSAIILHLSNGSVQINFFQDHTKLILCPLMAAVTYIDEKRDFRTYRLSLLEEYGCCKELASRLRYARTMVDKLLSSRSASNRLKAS

SMILES | IC50 [nM] | IC50 (ATP) [nM]
CNC(=O)c1ccc(Nc2ncc3c(n2)N(CCCc2ccccc2)CC(F)(F)C(=O)N3C)c(OC)c1 [Example I-284, 4-[7,7-difluoro-5-methyl-6-oxo-9-(3-phenyl-propyl)-6,7,8,9-tetrahydro-5H-pyrimido[4,5-b][1,4]diazepin-2-ylamino]-3-methoxy-N-methyl-benzamide] | 51 to 500 | –
CN(C)CCCNC(=O)c1ccc(Nc2ncc3c(n2)N(C2CCCC2)CC(F)(F)C(=O)N3C)c(F)c1 [Example I-227, 4-(9-cyclopentyl-7,7-difluoro-5-methyl-6-oxo-6,7,8,9-tetrahydro-5H-pyrimido[4,5-b][1,4]diazepin-2-ylamino)-N-(3-dimethylamino-propyl)-3-fluoro-benzamide] | 1 to 50 | –
COc1cc(C(=O)NCC2CN(C(=O)OC(C)(C)C)C2)ccc1Nc1ncc2c(n1)N(C1CCCC1)CC(F)(F)C(=O)N2C [Example I-91, 3-{[4-(9-cyclopentyl-7,7-difluoro-5-methyl-6-oxo-6,7,8,9-tetrahydro-5H-pyrimido[4,5-b][1,4]diazepin-2-ylamino)-3-methoxy-benzoylamino]-methyl}-azetidine-1-carboxylic acid tert-butyl ester] | – | 1 to 50
CN1C(=O)C(F)(F)CN(C2CCCCC2)c2nc(Nc3ccc(C(N)=O)cc3)ncc21 [Example I-257, 4-(9-cyclohexyl-7,7-difluoro-5-methyl-6-oxo-6,7,8,9-tetrahydro-5H-pyrimido[4,5-b][1,4]diazepin-2-ylamino)-benzamide] | 1 to 50 | –
CN(C)CCNC(=O)c1cc(F)c(Nc2ncc3c(n2)N(C2CCCC2)CC(F)(F)C(=O)N3C)cc1F [Example I-236, 4-(9-cyclopentyl-7,7-difluoro-5-methyl-6-oxo-6,7,8,9-tetrahydro-5H-pyrimido[4,5-b][1,4]diazepin-2-ylamino)-N-(2-dimethylamino-ethyl)-2,5-difluoro-benzamide] | 1 to 50 | –
COc1cc(C(=O)NCCN2CCN(C)CC2)ccc1Nc1ncc2c(n1)N(C1CCCC1)CC(F)(F)C(=O)N2C [Example I-47, 4-(9-cyclopentyl-7,7-difluoro-5-methyl-6-oxo-6,7,8,9-tetrahydro-5H-pyrimido[4,5-b][1,4]diazepin-2-ylamino)-3-methoxy-N-[2-(4-methyl-piperazin-1-yl)-ethyl]-benzamide] | – | 1 to 50
COc1cc(C(=O)NCCCN(C)C)ccc1Nc1ncc2c(n1)N(C1CCCC1)CC(F)(F)C(=O)N2 [Example I-154, 4-(9-cyclopentyl-7,7-difluoro-6-oxo-6,7,8,9-tetrahydro-5H-pyrimido[4,5-b][1,4]diazepin-2-ylamino)-N-(3-dimethylamino-propyl)-3-methoxy-benzamide] | – | 500 to 5000
COc1cc(C(=O)NC2CCN(CC(F)(F)F)CC2)ccc1Nc1ncc2c(n1)N(C1CCCC1)CC(F)(F)C(=O)N2C [Example I-77, 4-(9-cyclopentyl-7,7-difluoro-5-methyl-6-oxo-6,7,8,9-tetrahydro-5H-pyrimido[4,5-b][1,4]diazepin-2-ylamino)-3-methoxy-N-[1-(2,2,2-trifluoro-ethyl)-piperidin-4-yl]-benzamide] | – | 1 to 50
Cc1cc(C(=O)NC2CCOCC2)ccc1Nc1ncc2c(n1)N(C1CCCC1)CC(F)(F)C(=O)N2C [Example I-187, 4-(9-cyclopentyl-7,7-difluoro-5-methyl-6-oxo-6,7,8,9-tetrahydro-5H-pyrimido[4,5-b][1,4]diazepin-2-ylamino)-3-methyl-N-(tetrahydro-pyran-4-yl)-benzamide] | 1 to 50 | –
COc1cc(C(=O)NCCCN(C)C)ccc1Nc1ncc2c(n1)N(C1CCCCC1)CC(F)(F)C(=O)N2C [Example I-254, 4-(9-cyclohexyl-7,7-difluoro-5-methyl-6-oxo-6,7,8,9-tetrahydro-5H-pyrimido[4,5-b][1,4]diazepin-2-ylamino)-N-(3-dimethylamino-propyl)-3-methoxy-benzamide] | 1 to 50 | –
COc1cc(C(=O)NCCCN2CCCC2=O)ccc1Nc1ncc2c(n1)N(C1CCCC1)CC(F)(F)C(=O)N2C [Example I-113, 4-(9-cyclopentyl-7,7-difluoro-5-methyl-6-oxo-6,7,8,9-tetrahydro-5H-pyrimido[4,5-b][1,4]diazepin-2-ylamino)-3-methoxy-N-[3-(2-oxo-pyrrolidin-1-yl)-propyl]-benzamide] | – | 1 to 50
CCOc1cc(C(=O)NC2CCOCC2)ccc1Nc1ncc2c(n1)N(C1CCCC1)CC(F)(F)C(=O)N2C [Example I-217, 4-(9-cyclopentyl-7,7-difluoro-5-methyl-6-oxo-6,7,8,9-tetrahydro-5H-pyrimido[4,5-b][1,4]diazepin-2-ylamino)-3-ethoxy-N-(tetrahydro-pyran-4-yl)-benzamide] | 1 to 50 | –
COc1cc(C(=O)NC2CCN(C)CC2)ccc1Nc1ncc2c(n1)N(C1CCCC1)CC(F)(F)C(=O)N2CC(F)(F)F [Example I-150, 4-[9-cyclopentyl-7,7-difluoro-6-oxo-5-(2,2,2-trifluoro-ethyl)-6,7,8,9-tetrahydro-5H-pyrimido[4,5-b][1,4]diazepin-2-ylamino]-3-methoxy-N-(1-methyl-piperidin-4-yl)-benzamide] | – | 500 to 5000
COc1cc(C(=O)N[C@H]2CC[C@@H](O)CC2)ccc1Nc1ncc2c(n1)N(C1CCCC1)CC(F)(F)C(=O)N2C [Example I-68, cis-4-(9-cyclopentyl-7,7-difluoro-5-methyl-6-oxo-6,7,8,9-tetrahydro-5H-pyrimido[4,5-b][1,4]diazepin-2-ylamino)-N-(4-hydroxy-cyclohexyl)-3-methoxy-benzamide] | – | 1 to 50
COc1ccc(CN2CC(F)(F)C(=O)N(C)c3cnc(Nc4ccc(C(=O)NC5CCN(C)CC5)cc4OC)nc32)cc1 [Example I-291, 4-[7,7-difluoro-9-(4-methoxy-benzyl)-5-methyl-6-oxo-6,7,8,9-tetrahydro-5H-pyrimido[4,5-b][1,4]diazepin-2-ylamino]-3-methoxy-N-(1-methyl-piperidin-4-yl)-benzamide] | 51 to 500 | –
CCCN1C(=O)C(F)(F)CN(C2CCCC2)c2nc(Nc3ccc(C(=O)NC4CCN(C)CC4)cc3OC)ncc21 [Example I-165, 4-(9-cyclopentyl-7,7-difluoro-6-oxo-5-propyl-6,7,8,9-tetrahydro-5H-pyrimido[4,5-b][1,4]diazepin-2-ylamino)-3-methoxy-N-(1-methyl-piperidin-4-yl)-benzamide] | 51 to 500 | –
CN1C(=O)C(F)(F)CN(C2CCCC2)c2nc(Nc3ccc(C(=O)NC4CCN(C(=O)OC(C)(C)C)CC4)cc3C(F)(F)F)ncc21 [Example I-211, 4-[4-(9-cyclopentyl-7,7-difluoro-5-methyl-6-oxo-6,7,8,9-tetrahydro-5H-pyrimido[4,5-b][1,4]diazepin-2-ylamino)-3-trifluoromethyl-benzoylamino]-piperidine-1-carboxylic acid tert-butyl ester] | 51 to 500 | –
NC(=O)c1ccc(Nc2ncc3c(n2)N(C2CCCC2)CC(F)(F)C(=O)N3)cc1 [Example I-132, 4-(9-cyclopentyl-7,7-difluoro-6-oxo-6,7,8,9-tetrahydro-5H-pyrimido[4,5-b][1,4]diazepin-2-ylamino)-benzamide] | – | > 5000

— patent US8003785B2 (Takeda Pharmaceutical Company Limited, priority 2008, dated 2011)
